Test results taken from PubChem BioAssay AID743186 (Broad Institute, 2013).
The source made the active and inactive calls. How the calls were made is not given here.

Tested on: not listed separately
Experiment: Mycobacterium tuberculosis growth inhibition, OD600, confirmatory dose response, dry powder (AID 743186)
Conditions: Mycobacterium tuberculosis growth, OD600; at 6 µM (top of the series)

Question: With O=C(COc1c(Br)cc(Br)c2cccnc12)N1CCCCC1 as the molecule, how does the growth change, negative = inhibition read?
Answer: Its growth change, negative = inhibition is -5.71% (inactive).

Question: For O=C(OCCCCN1C(=O)c2ccccc2C1=O)c1ccc(Br)o1, which growth change, negative = inhibition is on record?
Answer: Its growth change, negative = inhibition is 1.08% (inactive).

Question: For CCOC(=O)c1c(C)n(C)c2ccc(OC(C)C(=O)OC)cc12 (stereo unspecified), which growth change, negative = inhibition is on record?
Answer: The growth change, negative = inhibition was -3.72% (inactive).

Question: With NC(=O)COc1ccc2cc(-c3ccc(F)cc3)c(=O)oc2c1 as the molecule, how does the growth change, negative = inhibition read?
Answer: The growth change, negative = inhibition was 0.842% (inactive).

Question: Which growth change, negative = inhibition does the source give for CCOC(=O)COc1ccc2c(=O)c(-c3ccccc3)coc2c1 here?
Answer: The growth change, negative = inhibition was -66.9% (inactive).

Question: With O=C(COc1cccc2ccccc12)Nc1nc2ccccc2[nH]1 as the molecule, how does the growth change, negative = inhibition read?
Answer: Its growth change, negative = inhibition is 3.31% (inactive).

Question: With O=C(CCN1CCC(c2cccs2)=N1)c1cccs1 as the molecule, how does the growth change, negative = inhibition read?
Answer: Its growth change, negative = inhibition is -5.74% (inactive).

Question: Which growth change, negative = inhibition does the source give for NC(=O)C1(N2CCCCC2)CCN(C2CC(=O)N(CCc3ccccc3)C2=O)CC1 (stereo unspecified) here?
Answer: Its growth change, negative = inhibition is 12.1% (inactive).

Question: For CCOC(=O)COc1ccc2c(c1)C(=O)CC1(CCCCC1)O2, which growth change, negative = inhibition is on record?
Answer: Its growth change, negative = inhibition is -49.6% (inactive).

Question: With CCOC(=O)c1sc(NC(=O)CCN2CCOCC2)c(C(=O)OCC)c1C as the molecule, how does the growth change, negative = inhibition read?
Answer: Its growth change, negative = inhibition is 2.46% (inactive).

Question: Which growth change, negative = inhibition does the source give for CCOC(=O)COc1ccc2c(=O)cc(-c3ccccc3)oc2c1 here?
Answer: The growth change, negative = inhibition was -72.2% (inactive).

Question: Which growth change, negative = inhibition does the source give for O=C(NC1CC2CCC1C2)C1COc2ccccc2O1 (stereo unspecified) here?
Answer: Its growth change, negative = inhibition is -8.57% (inactive).

Question: For O=C(OCc1ccc(Cl)c(Cl)c1)c1ccccn1, which growth change, negative = inhibition is on record?
Answer: The growth change, negative = inhibition was -2.92% (inactive).

Question: Which growth change, negative = inhibition does the source give for CCCC(C)C(=O)Nc1ccc(Cl)cn1 (stereo unspecified) here?
Answer: Its growth change, negative = inhibition is -8.24% (inactive).

Question: With CC(=O)c1ccc(NC(=O)c2cc(CC(C)C)on2)cc1 as the molecule, how does the growth change, negative = inhibition read?
Answer: Its growth change, negative = inhibition is -8.04% (inactive).

Question: For CCCOC(=O)c1ccc(NC(=O)c2ccc(Br)o2)cc1, which growth change, negative = inhibition is on record?
Answer: The growth change, negative = inhibition was 4.84% (inactive).

Question: For CCc1ccc(OCCCC(=O)NCc2ccco2)cc1, which growth change, negative = inhibition is on record?
Answer: The growth change, negative = inhibition was 2.01% (inactive).

Question: With Clc1cccc(-c2ccc(CNCc3ccccn3)o2)c1 as the molecule, how does the growth change, negative = inhibition read?
Answer: Its growth change, negative = inhibition is -12.5% (inactive).

Question: With Fc1ccc(-c2ccc(CNCc3ccccn3)o2)cc1Cl as the molecule, how does the growth change, negative = inhibition read?
Answer: The growth change, negative = inhibition was -11.2% (inactive).

Tested on: Mycobacterium tuberculosis growth, OD600
Experiment: as above
Conditions: not given

Question: Which AC90 does the source give for O=C(NCc1cccs1)c1ccc(Br)o1 here?
Answer: The AC90 was > 6 µM (inactive).

Question: For Cc1cc(C)n2nc(S(=O)(=O)Nc3c(Cl)cccc3Cl)nc2n1, which AC90 is on record?
Answer: Its AC90 is 3.89 µM.

Question: For Cc1cc(NC(=O)C2CCCCC2)n(-c2nc3ccccc3[nH]2)n1, which AC90 is on record?
Answer: Its AC90 is > 6 µM (inactive).

Question: With Cc1ccc(C)c(-c2csc(NC(=O)c3cnccn3)n2)c1 as the molecule, how does the AC90 read?
Answer: Its AC90 is > 6 µM (inactive).

Question: With Cc1nnc(NC(=O)c2ccc3ccccc3c2)o1 as the molecule, how does the AC90 read?
Answer: The AC90 was 2.96 µM.

Question: With Cc1cccc(Cn2ccc(NC(=O)c3ccc4c(c3)OCO4)n2)c1 as the molecule, how does the AC90 read?
Answer: Its AC90 is 1.67 µM.

Question: With O=C(Nc1nc2ccccc2[nH]1)c1cccc(Cl)c1 as the molecule, how does the AC90 read?
Answer: Its AC90 is > 6 µM (inactive).

Question: With C=CCn1c(NC(=O)c2ccccc2)nc2ccccc21 as the molecule, how does the AC90 read?
Answer: Its AC90 is > 6 µM (inactive).

Question: For COC(=O)COc1cccc(NC(=O)c2ccc(Cl)cc2)c1, which AC90 is on record?
Answer: Its AC90 is > 6 µM (inactive).

Question: With CS(=O)(=O)Cc1nc2ccccc2oc1=O as the molecule, how does the AC90 read?
Answer: Its AC90 is > 6 µM (inactive).

Question: For Clc1cccc(CNCCNCc2cccc(Cl)c2)c1, which AC90 is on record?
Answer: Its AC90 is > 6 µM (inactive).

Question: For c1ccc(Nc2nc(-c3ccccn3)cs2)cc1, which AC90 is on record?
Answer: Its AC90 is > 6 µM (inactive).

Question: For COC(=O)COc1ccc2c(=O)c(Oc3ccccc3)c(C)oc2c1, which AC90 is on record?
Answer: Its AC90 is > 6 µM (inactive).

Question: With CCCCN(C/C=C/c1ccccc1OC)Cc1ccccc1 as the molecule, how does the AC90 read?
Answer: Its AC90 is > 6 µM (inactive).

Question: With Cc1cccc(C)c1N1C(=O)CC(N2CCSCC2)C1=O (stereo unspecified) as the molecule, how does the AC90 read?
Answer: Its AC90 is > 6 µM (inactive).

Question: With Brc1c(-c2ccc3c(c2)OCO3)nc2ncccn12 as the molecule, how does the AC90 read?
Answer: The AC90 was 5.4 µM.

Question: Which AC90 does the source give for NC1CCN(c2c(F)cc3c(=O)c(C(=O)O)cn(C4CC4)c3c2Cl)C1 (stereo unspecified) here?
Answer: Its AC90 is 0.176 µM.
